Source: ChEMBL document CHEMBL3286327, “Cyclohexadepsipeptides of the isaridin class from the marine-derived fungus Beauveria felina EN-135” (J Nat Prod, 2014)
≈ marks a conversion by molar mass, not a printed value. Numbered stars: 1 amine (or outer) side, 2 acyl side, 3 side chain; on linkers, the order of the positions; unused ones are H or OH. Square brackets hold non-standard residues; d marks the D form. Peptide text beside a SMILES is read from it. X1 = C[C@H]1CCN([*:1])[C@@H]1C(=O)[*:2]; NMeF = CN[C@@H](Cc1ccccc1)C(=O)O; Hica(2S) = CC(C)C[C@H](O)C(=O)O; NMeL = CN[C@@H](CC(C)C)C(=O)O; NMeV = CN[C@H](C(=O)O)C(C)C; βAla = NCCC(=O)O

Columns and labels:
Escherichia coli = test: Antibacterial activity against Escherichia coli after 24 hrs; format: functional
Artemia salina = test: Toxicity in Artemia salina at 100 ug/ml; format: organism-based; details: in vivo

SMILES: CC(C)C[C@@H]1NC(=O)[C@H](C(C)C)N(C)C(=O)[C@H](Cc2ccccc2)NC(=O)[C@@H]2CCCN2C(=O)[C@H](CC(C)C)OC(=O)CCNC1=O (cyclo(F[NMeV]L[βAla][Hica(2S)]P))
- MIC (Escherichia coli): 8 µg/mL (≈ 12.2 µM)
- Activity (Artemia salina): Non-toxic

SMILES: CC(C)C[C@@H]1OC(=O)CCNC(=O)[C@H](Cc2ccccc2)N(C)C(=O)[C@H](C(C)C)N(C)C(=O)[C@H](Cc2ccccc2)NC(=O)[C@@H]2CCCN2C1=O (cyclo(F[NMeV][NMeF][βAla][Hica(2S)]P))
- Activity (Artemia salina): Non-toxic

SMILES: CC(C)C[C@@H]1OC(=O)CCNC(=O)[C@H](Cc2ccccc2)N(C)C(=O)[C@H](C(C)C)N(C)C(=O)[C@H](Cc2ccccc2)NC(=O)[C@@H]2[C@@H](C)CCN2C1=O (cyclo(F[NMeV][NMeF][βAla][Hica(2S)][X1]))
- Activity (Artemia salina): Non-toxic

SMILES: CC(C)C[C@@H]1OC(=O)CCNC(=O)[C@H](C(C)C)N(C)C(=O)[C@H](C(C)C)N(C)C(=O)[C@H](Cc2ccccc2)NC(=O)[C@@H]2CCCN2C1=O (cyclo(F[NMeV][NMeV][βAla][Hica(2S)]P))
- MIC (Escherichia coli): 16 µg/mL (≈ 24.4 µM)
- Activity (Artemia salina): Non-toxic

SMILES: CC(C)C[C@@H]1NC(=O)[C@H](C(C)C)N(C)C(=O)[C@H](Cc2ccc(O)cc2)NC(=O)[C@@H]2CCCN2C(=O)[C@H](CC(C)C)OC(=O)CCNC1=O (cyclo(L[βAla][Hica(2S)]PY[NMeV]))
- MIC (Escherichia coli): 64 µg/mL (≈ 95.3 µM)
- Activity (Artemia salina): Non-toxic

SMILES: CC(C)C[C@@H]1OC(=O)CCNC(=O)[C@H](CC(C)C)N(C)C(=O)[C@H](C(C)C)N(C)C(=O)[C@H](Cc2ccc(O)cc2)NC(=O)[C@@H]2CCCN2C1=O (cyclo([Hica(2S)]PY[NMeV][NMeL][βAla]))
- MIC (Escherichia coli): 64 µg/mL (≈ 93.3 µM)
- Activity (Artemia salina): Non-toxic

SMILES: O=C(N[C@H](CO)[C@H](O)c1ccc([N+](=O)[O-])cc1)C(Cl)Cl [CHLORAMPHENICOL]
- MIC (Escherichia coli): 4 µg/mL (≈ 12.4 µM)
